Data from patent US20240148664A1, “LIPID AND COMPOSITION” (SOGO PHARMACEUTICAL CO., LTD., priority 2021, published 2024).

Experiments:
[1] = siRNA / mRNA encapsulation rate of lipid nanoparticle (RiboGreen); type: physicochemical
Outline: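 LNP solution was read with RiboGreen (ex 480/em 520 nm) with and without 1% Triton X-100 disruption (2 pmol siRNA or mRNA per 40 μL). Encapsulation (%) = (a−b)/a×100, a = total and b = free RNA signal, each a blank-subtracted mean of three readings.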

HEK293T cells = test: Evaluation of protein expression effect (luciferase luminescence), Cell experiment 2; type: cell-based; conditions: lipid nanoparticle containing mRNA, 100 ng mRNA/20 μL per well, 24 hours, amount of luminescence as index
Procedure: (§1) For lipids (Ia), (Ib), and (Ie) of Examples 1, 2, and 5, a cell experiment was carried out by using HEK293T cells and NIH3T3 cells in order to evaluate lipid nanoparticles encapsulating an mRNA. By transfecting the cells with lipid nanoparticles and measuring the amount of a predetermined protein produced, the performance of the lipid nanoparticles used can be evaluated. Hereinafter, the procedure of the cell experiment will be shown.
(§2) A. Seeding of Cells • (i) A liquid medium (DMEM High glucose, FBS+, P/S+) was temperature-controlled in an incubator set at 37° C. • (ii) A cryotube containing cells was taken out from a −80° C. freezer and thawed at once in the incubator set at 37° C. • (iii) A test tube was subjected to a centrifuge to precipitate the cells. • (iv) The supernatant was aspirated, and the liquid medium was added and gently tapped to disperse the cells. • (v) A small amount of the cells-dispersed liquid medium was collected, and the number of cells was observed and counted under a microscope. • (vi) The cells were seeded in three 24-well black plates such that the number of cells was 1×10^4 cells per well. The 24-well black plates were placed in an incubator, and the cells were cultured for 24 hours under conditions of 37° C. and 5% CO2.
(§3) B. Transfection • (i) A lipid nanoparticle-containing solution including an mRNA was concentrated such that the mRNA concentration was 100 ng/20 μL (=0.005 μg/μL). • (ii) A liquid medium (DMEM High glucose, FBS-, P/S-) and FBS were warmed to 37° C., required amounts of the liquid medium and FBS were mixed (FBS concentration of liquid medium at this time: 12.5%), and the prepared liquid medium was filter-sterilized through a 0.22 μm filter. • (iii) The liquid medium supernatant in the 24-well black plates in which the cells were cultured was aspirated and 80 μL per well of the prepared liquid medium was added. • (iv) 20 μL per well of RFW and the lipid nanoparticle-containing solution adjusted to the above concentration was added. • (v) The 24-well black plates were placed in an incubator, and the cells were cultured for 24 hours under conditions of 37° C. and 5% CO2.
(§4) C. Evaluation of Protein Expression Effect (Detection of Gaussia Luciferase (GLuc))
(§5) Evaluation of the protein expression effect was carried out by using Gaussia Luciferase Assay Kit manufactured by Thermo Scientific. • (i) The cells cultured in B. (v) above were taken out from the incubator and allowed to stand at room temperature. • (ii) 20 μL of the supernatant in the plates was collected and added to a fresh 96-well white plate. • (iii) 100× Coelenterazine and Gaussia Glow Assay Buffer attached to the kit were returned to room temperature and mixed at 1:100 to prepare a solution. The prepared solution was added to the supernatant at 50 μL per well by using a multipipette. • (iv) The plate was shielded from light with aluminum foil, allowed to stand for 10 minutes, and then measured for the amount of luminescence with a plate reader (manufactured by TECAN, Infinite M200) (measurement time: 2 seconds), and the protein expression level was calculated by using the resulting amount of luminescence as an index.

NIH3T3 cells = test: as above; type: cell-based; conditions: lipid nanoparticle containing mRNA, 100 ng mRNA/20 μL per well, 24 hours, amount of luminescence as index
Procedure: as §1, §2, §3, §4, §5

[2] = siRNA encapsulation rate of lipid nanoparticle

Row | SMILES | Encapsulation rate (%) [1, 2] | Encapsulation rate (%) ([1]; mRNA lipid nanoparticle for in vivo experiment, PEG-modified lipid (PEG2000-DMG 1.5 mol %) present) | Encapsulation rate (%) ([1]; mRNA lipid nanoparticle for in vivo experiment, PEG-modified lipid absent) | Protein expression level (HEK293T cells) | Protein expression level (NIH3T3 cells)
1 | CCCCCCCC/C=C\CCCCCCCCC(CCCCCCC/C=C\CCCCCCCC)OC(=O)C(CC(=O)O)NC(=N)N (stereo not drawn) [Comparative Example 2, 3-guanidino-4-(((9Z,27Z)-hexatriaconta-9,27-dien-18-yl)oxy)-4-oxobutanoic acid, reference compound] | 95% |  |  |  | 
2 | CCCCCCCC/C=C\CCCCCCCCC(CCCCCCC/C=C\CCCCCCCC)OC(=O)C(CCC(=O)O)NC(=N)N (stereo not drawn) [Comparative Example 3, 4-guanidino-5-(((9Z,27Z)-hexatriaconta-9,27-dien-18-yl)oxy)-5-oxopentanoic acid, reference compound] | 95% |  |  |  | 
3 | CCCCCCCC/C=C\CCCCCCCCC(CCCCCCC/C=C\CCCCCCCC)OC(=O)C(CCC(=O)O)NC(=O)C(N)CCCNC(=N)N (stereo not drawn) [Example 2, 4-(2-amino-5-guanidinopentanamido)-5-(((9Z,27Z)-hexatriaconta-9,27-dien-18-yl)oxy)-5-oxopentanoic acid] | 99% | 93.2% | 91.3% | 800,000 | 25,000
4 | CCCCCCCC/C=C\CCCCCCCCC(CCCCCCC/C=C\CCCCCCCC)OC(=O)C(NC(=O)C(N)CCCNC(=N)N)C(C)O [Example 5, (9Z,27Z)-hexatriaconta-9,27-dien-18-yl (2S)-2-((S)-2-amino-5-guanidinopentanamido)-3-hydroxybutanoate] | 100% |  |  | 100,000 | 60,000
5 | CCCCCCCC/C=C\CCCCCCCCC(CCCCCCC/C=C\CCCCCCCC)OC(=O)[C@H](CCSC)NC(=O)[C@@H](N)CCCNC(=N)N (stereo partly drawn) [Example 6, (9Z,27Z)-hexatriaconta-9,27-dien-18-yl arginylmethioninate] | 100% |  |  |  | 

Second part, led by results:

Row | Encapsulation rate (%) [1, 2] | Encapsulation rate (%) ([1]; mRNA lipid nanoparticle for in vivo experiment, PEG-modified lipid (PEG2000-DMG 1.5 mol %) present) | Encapsulation rate (%) ([1]; mRNA lipid nanoparticle for in vivo experiment, PEG-modified lipid absent) | SMILES | Protein expression level (HEK293T cells) | Protein expression level (NIH3T3 cells)
6 | 99% |  |  | CCCCCCCC/C=C\CCCCCCCCC(CCCCCCC/C=C\CCCCCCCC)OC(=O)C(CC(=O)O)NC(=O)C(N)CCCNC(=N)N (stereo not drawn) [Example 1, 3-(2-amino-5-guanidinopentanamido)-4-(((9Z,27Z)-hexatriaconta-9,27-dien-18-yl)oxy)-4-oxobutanoic acid] | 100,000 | 5,000
7 | 100% |  |  | CCCCCCCC/C=C\CCCCCCCCC(CCCCCCC/C=C\CCCCCCCC)OC(=O)C(CO)NC(=O)C(N)CCCNC(=N)N [Example 4, (9Z,27Z)-hexatriaconta-9,27-dien-18-yl (2S)-2-((S)-2-amino-5-guanidinopentanamido)-3-hydroxypropionate] |  | 
